Measured values taken from PubChem BioAssay (NCI).
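In this assay, cells in 96-well plates receive the compound at five concentrations for 48 hours. Endpoints are linearly interpolated between the surrounding concentrations. GI50 = concentration required for 50% inhibition of growth. Definition used: TGI = concentration required for complete inhibition of growth.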

Experiments:
Assay in all cases: inhibition of tumour cell growth, NCI panel, 48 h
786-0 renal = test system: 786-0 renal
HCC-2998 colon = test system: HCC-2998 colon
HT29 colon = test system: HT29 colon
M14 melanoma = test system: M14 melanoma
NCI-H226 lung = test system: NCI-H226 lung
NCI-H522 lung = test system: NCI-H522 lung
OVCAR-3 ovarian = test system: OVCAR-3 ovarian
OVCAR-5 ovarian = test system: OVCAR-5 ovarian
RXF 393 renal = test system: RXF 393 renal
SNB-75 CNS = test system: SNB-75 CNS

c1cc(CNC23CC4CC(CC(C4)C2)C3)cc(C[N+](Cc2cccc(CNC34CC5CC(CC(C5)C3)C4)c2)(Cc2cccc(CNC34CC5CC(CC(C5)C3)C4)c2)Cc2cccc(CNC34CC5CC(CC(C5)C3)C4)c2)c1 (stereo unspecified)
GI50 (786-0 renal): 3.55 µM
TGI (786-0 renal): 7.75 µM
GI50 (HCC-2998 colon): 5.11 µM
TGI (HCC-2998 colon): 22.2 µM
GI50 (HT29 colon): 3.58 µM
TGI (HT29 colon): 11.8 µM
GI50 (M14 melanoma): 3.36 µM
TGI (M14 melanoma): 8.69 µM
GI50 (NCI-H226 lung): 11.5 µM
TGI (NCI-H226 lung): 45.3 µM
GI50 (NCI-H522 lung): 3.06 µM
TGI (NCI-H522 lung): 6.49 µM
GI50 (OVCAR-3 ovarian): 4.35 µM
TGI (OVCAR-3 ovarian): 11.8 µM
GI50 (OVCAR-5 ovarian): 4.09 µM
TGI (OVCAR-5 ovarian): 11.5 µM
GI50 (RXF 393 renal): 3.39 µM
TGI (RXF 393 renal): 6.54 µM
GI50 (SNB-75 CNS): 9.78 µM
TGI (SNB-75 CNS): 40.7 µM

COC(=O)C1=CNC=C(C(=O)OC)C1C1=CC(=O)C(C)=CC1=O
GI50 (786-0 renal): 4.3 µM
TGI (786-0 renal): 11.5 µM
GI50 (HCC-2998 colon): 14.9 µM
TGI (HCC-2998 colon): 28.1 µM
GI50 (HT29 colon): 29.9 µM
TGI (HT29 colon): > 100 µM
GI50 (M14 melanoma): 15.2 µM
TGI (M14 melanoma): 29.1 µM
GI50 (NCI-H226 lung): 5.35 µM
TGI (NCI-H226 lung): 17.2 µM
GI50 (NCI-H522 lung): 19.8 µM
TGI (NCI-H522 lung): 47.2 µM
GI50 (OVCAR-3 ovarian): 5.64 µM
TGI (OVCAR-3 ovarian): 22.1 µM
GI50 (OVCAR-5 ovarian): 17.7 µM
TGI (OVCAR-5 ovarian): 31.7 µM
GI50 (RXF 393 renal): 31.1 µM
TGI (RXF 393 renal): > 54.2 µM
GI50 (SNB-75 CNS): 16 µM
TGI (SNB-75 CNS): 42 µM

C[C@@]12CC=C3c4nc(Nc5cccc(O)c5)sc4CC[C@]3(C)[C@H]1CC[C@]1(C)C(=O)CC[C@@H]21
GI50 (786-0 renal): 1.55 µM
TGI (786-0 renal): 4.91 µM
GI50 (HT29 colon): 1.96 µM
TGI (HT29 colon): 6.43 µM
GI50 (M14 melanoma): 2.97 µM
TGI (M14 melanoma): > 100 µM
GI50 (NCI-H226 lung): 2.86 µM
TGI (NCI-H226 lung): 8.94 µM
GI50 (NCI-H522 lung): 2.14 µM
TGI (NCI-H522 lung): 4.64 µM
GI50 (OVCAR-3 ovarian): 1.66 µM
TGI (OVCAR-3 ovarian): 3.1 µM
GI50 (OVCAR-5 ovarian): 2.58 µM
TGI (OVCAR-5 ovarian): 7.26 µM
GI50 (RXF 393 renal): 0.666 µM
TGI (RXF 393 renal): 2.35 µM
GI50 (SNB-75 CNS): 3.19 µM
TGI (SNB-75 CNS): > 100 µM

CCC[CH2][Sn]1([CH2]CCC)[O]CC(CN2CCCC2)[O]1 (stereo unspecified)
GI50 (786-0 renal): 14.4 µM
TGI (786-0 renal): 28.2 µM
GI50 (HCC-2998 colon): 14.3 µM
TGI (HCC-2998 colon): 28.5 µM
GI50 (HT29 colon): 11.1 µM
TGI (HT29 colon): 30.7 µM
GI50 (M14 melanoma): 16.9 µM
TGI (M14 melanoma): 32.5 µM
GI50 (NCI-H226 lung): 21.9 µM
TGI (NCI-H226 lung): 64.1 µM
GI50 (NCI-H522 lung): 3.32 µM
TGI (NCI-H522 lung): 11.1 µM
GI50 (OVCAR-3 ovarian): 13 µM
TGI (OVCAR-3 ovarian): 25.7 µM
GI50 (OVCAR-5 ovarian): 12.9 µM
TGI (OVCAR-5 ovarian): 27.7 µM
GI50 (RXF 393 renal): 22.4 µM
TGI (RXF 393 renal): 37.8 µM
GI50 (SNB-75 CNS): 14.4 µM
TGI (SNB-75 CNS): 40.9 µM

O=C(N/N=C/c1ccc(Cl)cc1)c1ccc(C(F)(F)F)nc1Nc1cccc(C(F)(F)F)c1
GI50 (786-0 renal): 0.818 µM
TGI (786-0 renal): 3.63 µM
GI50 (HCC-2998 colon): 4.3 µM
TGI (HCC-2998 colon): 17.3 µM
GI50 (HT29 colon): 1.44 µM
TGI (HT29 colon): 11.7 µM
GI50 (M14 melanoma): 2.54 µM
TGI (M14 melanoma): 10 µM
GI50 (NCI-H226 lung): 2.21 µM
TGI (NCI-H226 lung): 6.82 µM
GI50 (NCI-H522 lung): 2.8 µM
TGI (NCI-H522 lung): 10.7 µM
GI50 (OVCAR-3 ovarian): 1.11 µM
TGI (OVCAR-3 ovarian): 6.9 µM
GI50 (OVCAR-5 ovarian): 3.2 µM
TGI (OVCAR-5 ovarian): 13.7 µM
GI50 (SNB-75 CNS): 2.72 µM
TGI (SNB-75 CNS): 13.4 µM

COc1ccc(C(=O)C(C(=O)CCC(=O)Nc2cccc(Cl)c2)c2ccc(OC)cc2)cc1 (stereo unspecified)
TGI (786-0 renal): > 100 µM
TGI (HCC-2998 colon): > 100 µM
TGI (HT29 colon): > 100 µM
TGI (M14 melanoma): > 100 µM
TGI (NCI-H226 lung): > 100 µM
TGI (NCI-H522 lung): > 100 µM
TGI (OVCAR-3 ovarian): > 100 µM
TGI (OVCAR-5 ovarian): > 100 µM
TGI (SNB-75 CNS): > 100 µM

CN1C/C=C\CCOc2cccc(c2)-c2ccnc(n2)Nc2cccc(c2)C1
GI50 (786-0 renal): 0.0568 µM
TGI (786-0 renal): 0.802 µM
GI50 (HCC-2998 colon): 0.0802 µM
TGI (HCC-2998 colon): 0.63 µM
GI50 (HT29 colon): 0.0497 µM
TGI (HT29 colon): 0.976 µM
GI50 (M14 melanoma): 0.0644 µM
TGI (M14 melanoma): 0.346 µM
GI50 (NCI-H226 lung): 0.0692 µM
TGI (NCI-H226 lung): 1.3 µM
GI50 (NCI-H522 lung): 0.0708 µM
TGI (NCI-H522 lung): 0.334 µM
GI50 (OVCAR-3 ovarian): 0.0419 µM
TGI (OVCAR-3 ovarian): 0.769 µM
GI50 (OVCAR-5 ovarian): 0.0369 µM
GI50 (RXF 393 renal): 0.0221 µM
TGI (RXF 393 renal): 0.0501 µM
GI50 (SNB-75 CNS): 0.0545 µM
TGI (SNB-75 CNS): 0.169 µM

CCOC(=O)[C@@H](N)CCC(=O)N[C@@H](CSCc1ccccc1)C(=O)N[C@@H](C(=O)OCC)c1ccccc1
GI50 (786-0 renal): 17.7 µM
TGI (786-0 renal): 33.7 µM
GI50 (HCC-2998 colon): 16.7 µM
TGI (HCC-2998 colon): 32.2 µM
GI50 (HT29 colon): 16.6 µM
TGI (HT29 colon): 33.6 µM
GI50 (M14 melanoma): 19 µM
TGI (M14 melanoma): 37.2 µM
GI50 (NCI-H226 lung): 16.4 µM
TGI (NCI-H226 lung): 37.5 µM
GI50 (NCI-H522 lung): 16.2 µM
TGI (NCI-H522 lung): 32.4 µM
GI50 (OVCAR-3 ovarian): 16.7 µM
TGI (OVCAR-3 ovarian): 30.7 µM
GI50 (OVCAR-5 ovarian): > 100 µM
TGI (OVCAR-5 ovarian): > 100 µM
GI50 (RXF 393 renal): 14.1 µM
TGI (RXF 393 renal): 27.5 µM
GI50 (SNB-75 CNS): 13 µM
TGI (SNB-75 CNS): 26.4 µM

COc1cc2c(cc1OC)C(CC(=O)NN=C(C)C)NCC2 (stereo unspecified)
TGI (786-0 renal): > 100 µM
TGI (HCC-2998 colon): > 100 µM
TGI (HT29 colon): > 100 µM
TGI (M14 melanoma): > 100 µM
TGI (NCI-H226 lung): > 100 µM
TGI (NCI-H522 lung): > 100 µM
TGI (OVCAR-3 ovarian): > 100 µM
TGI (OVCAR-5 ovarian): > 100 µM
TGI (RXF 393 renal): > 100 µM
TGI (SNB-75 CNS): > 100 µM

N#CCN1C(=O)c2cccc3cc([N+](=O)[O-])cc(c23)C1=O
TGI (786-0 renal): > 100 µM
TGI (HCC-2998 colon): > 100 µM
TGI (HT29 colon): > 100 µM
TGI (M14 melanoma): > 100 µM
TGI (NCI-H226 lung): 62.4 µM
TGI (OVCAR-3 ovarian): 88.6 µM
TGI (OVCAR-5 ovarian): > 100 µM
TGI (RXF 393 renal): > 100 µM
TGI (SNB-75 CNS): > 100 µM

COC1=C(C)C(=O)c2c(c(COC(N)=O)c3n2CC2C3N2C)C1=O (stereo unspecified)
TGI (786-0 renal): 0.102 µM
TGI (HT29 colon): 0.314 µM
TGI (M14 melanoma): 0.0641 µM
TGI (NCI-H226 lung): 0.337 µM
TGI (NCI-H522 lung): 0.0304 µM
TGI (OVCAR-3 ovarian): 0.0987 µM
TGI (OVCAR-5 ovarian): 0.324 µM
TGI (RXF 393 renal): 0.0671 µM
TGI (SNB-75 CNS): < 0.0446 µM

Cc1cn(C2CC(O)C(CO)O2)c(=O)n2nnnc12 (stereo unspecified)
TGI (786-0 renal): > 100 µM
TGI (HCC-2998 colon): > 100 µM
TGI (HT29 colon): > 100 µM
TGI (M14 melanoma): > 100 µM
TGI (NCI-H226 lung): > 100 µM
TGI (NCI-H522 lung): > 100 µM
TGI (OVCAR-3 ovarian): > 100 µM
TGI (OVCAR-5 ovarian): > 100 µM
TGI (SNB-75 CNS): > 100 µM

CC1(C)C(=O)N(CCCCCCN2C(=O)C(C)(C)c3ccccc32)c2ccccc21
TGI (786-0 renal): 40.8 µM
TGI (HCC-2998 colon): > 100 µM
TGI (HT29 colon): 43.5 µM
TGI (M14 melanoma): 87.4 µM
TGI (NCI-H226 lung): 87.2 µM
TGI (OVCAR-3 ovarian): 77.8 µM
TGI (OVCAR-5 ovarian): > 100 µM
TGI (SNB-75 CNS): > 100 µM

O=C1C2C3C=C4c5ccccc5N(c5ccccc5)C4(C2C(=O)N1Cc1ccccc1)C1C(=O)N(Cc2ccccc2)C(=O)C31 (stereo unspecified)
TGI (786-0 renal): > 100 µM
TGI (HCC-2998 colon): > 100 µM
TGI (HT29 colon): > 100 µM
TGI (OVCAR-5 ovarian): > 100 µM
TGI (SNB-75 CNS): > 100 µM

COc1cc(C(C)O)c[n+](CCc2c[nH]c3ccccc23)c1 (stereo unspecified)
TGI (786-0 renal): > 100 µM
TGI (HCC-2998 colon): > 100 µM
TGI (HT29 colon): > 100 µM
TGI (M14 melanoma): > 100 µM
TGI (NCI-H522 lung): > 100 µM
TGI (OVCAR-3 ovarian): > 100 µM
TGI (RXF 393 renal): > 100 µM
TGI (SNB-75 CNS): > 100 µM

CC(C)(C)c1ccc2c(c1)S(=O)(=O)Nc1ccccc1NS(=O)(=O)c1cc(C(C)(C)C)ccc1OCCOCCOCCO2
TGI (786-0 renal): > 100 µM
TGI (HCC-2998 colon): > 100 µM
TGI (HT29 colon): > 100 µM
TGI (M14 melanoma): > 100 µM
TGI (NCI-H226 lung): > 100 µM
TGI (OVCAR-3 ovarian): > 100 µM
TGI (OVCAR-5 ovarian): > 100 µM
TGI (RXF 393 renal): > 100 µM
TGI (SNB-75 CNS): > 100 µM
